Tests used:
[1] = system: release of 5-HT from the proximal gut; experiment: 5-HT released by the proximal gut (ELISA of mid-gut fistula output); type: in vivo, dog; conditions: for amount of 5-HT released by the proximal gut: n=1
Experimental: To test the hypothesis that fat in the distal gut causes the release of 5-HT in the proximal gut, the amount of 5-HT collected from the output of the mid-gut fistula (proximal gut 5-HT) over a 90-minute period of buffer perfusion through both the duodenal and mid-gut fistulas (2 mL/min); buffer (control) or oleate (60 mM) was administered to the distal gut (n=1). The amount of 5-HT was determined using an ELISA kit specific for 5-HT (Sigma; Graham-Smith, D. G., The carcinoid syndrome, In: Topics in Gastroenterology, Truclove, S. C. and Lee, E. (eds.), Blackwells, London, p. 275 [1977]; Singh, S. M. et al., Concentrations of serotonin in plasma-a test for appendicitis?, Clin. Chem. 34:2572-2574 [1988]). The amount of 5-HT released by the proximal gut increased in response to fat in the distal gut from 100 μg in the control (buffer minus oleate) to 338 μg (buffer plus oleate to distal gut), showing that 5-HT is released in the proximal gut in response to fat in the distal gut. Thus, the release of 5-HT by the proximal gut can serve as a relayed signal for fat in the distal gut. The relayed release of 5-HT in the proximal gut in response to fat in the distal gut is consistent with Example 14(2), showing that slowing of intestinal transit by fat depends on an efferent 5-HT-mediated pathway to the proximal gut.
To test the hypothesis that 5-HT in the distal gut causes the release of 5-HT in the proximal gut, the amount of 5-HT collected from the output at the mid-gut fistula (Proximal gut 5-HT) over a 90-minute period of buffer perfusion through both the duodenal and mid-gut fistulas (2 mL/min each) was compared in the presence or absence of 5-HT (0.05 mg/kg/h) administered to the distal gut (n=1). 5-HT concentration was determined using an ELISA kit specific for 5-HT (Sigma). The amount of 5-HT released by the proximal gut increased from 156 μg in the control (minus distal 5-HT) to 450 μg (plus 5-HT to distal gut), implying that 5-HT is released by the proximal gut in response to 5-HT in the distal gut. Thus, the release of 5-HT by the proximal gut can serve as a relayed signal for distal gut 5-HT. This relayed release of 5-HT in the proximal gut explains the results of Example 14(6) showing that the slowing of intestinal transit by distal gut 5-HT was abolished by ondansetron in the proximal gut (efferent limb of response) as well as in the distal gut (afferent limb of response).
To test the hypothesis that the proximal gut releases 5-HT in response to lipid in the distal gut, we compared the amount of 5-HT in the output of the midgut fistula (i.e., proximal gut 5-HT) with buffered saline (control) or oleate in the distal gut. The amount of 5-HT collected over 90 min was measured using a 5-HT-specific ELISA test kit, as described herein above. Four dogs were tested.
The amount of 5-HT released from the proximal gut in response to intravenous PYY or buffered saline (Control) during buffer perfusion (2 mL/min over 90 minutes) through both the duodenal and mid-gut fistulas was measured to test the hypothesis that intravenous PYY (0.8 mg/kg/h) causes the release of 5-HT in the proximal gut. 5-HT was measured as in Example 14(9) above. The amount of 5-HT released by the proximal gut increased from 140.1 μg (Control) to 463.1 μg in response to intravenous PYY.

SIBO [2] = experiment: Case: depression with SIBO, neomycin; type: in vivo, human; conditions: one patient
Source text: A person presented with bloating, gas, abdominal distention, and cramping for a period of 3 years prior to LBHT. Symptoms of depression first appeared concurrently with the first appearance of bowel symptoms, and were serious enough that psychiatric hospitalization had been considered by their attending psychiatrist. The subject reported feeling very depressed and was convinced that life was not worth living. The subject=s LBHT indicated the presence of a SIBO condition. […] The subject had been prescribed eight different anti-depressant medications, all of which were discontinued as a result of their improvement.

SIBO [3] = experiment: Case: impaired memory/mentation with SIBO, neomycin; type: in vivo, human; conditions: one patient
Source text: The patient was a person with a history of chronic intestinal complaints over several years. They experienced altered bowel habits with alternating diarrhea and constipation with bloating, gas, distension and abdominal pain. Also, they had been diagnosed by several psychiatrists as having psychiatric problems due to decreased mentation from mild senility, and they contemplated psychiatric hospitalization.
SIBO was detected in this patient by LBHT.

SIBO [4] = experiment: Case: multiple sclerosis with SIBO, neomycin; type: in vivo, human; conditions: one patient
Source text: A suspected diagnosis of multiple sclerosis had been made by a neurologist was based on various neuropathies of the peripheral nervous system, including numbness, tingling, and weakness in the lower extremities, but this subject also had associated bloating, gas, distension and alteration in bowel habits. The subject also complained of a significant fatigue and nausea. The subject underwent LBHT, which detected SIBO. […] They no longer had numbness or tingling in the hands or feet and was functioning quite well.

Row | Molecule | amount of 5-HT released by the proximal gut ([1]; 60 mM oleate to distal gut without intravenous PYY) | amount of 5-HT released by the proximal gut ([1]; 60 mM oleate to distal gut, 90 min, control 100 μg) | amount of proximal gut 5-HT ([1]; oleate in distal gut, 90 min, buffer 82.7±20.53 ng, four dogs) | depression (SIBO [2]) | quality of life (SIBO [3]) | eradication of SIBO condition (SIBO [3]; 500 mg twice a day for ten days) | time to relapse of symptoms after initial response (SIBO [4]) | nausea, fatigue, bloating, gas distension and alteration in bowel habits (SIBO [4]; first treatment) | neuropathies (SIBO [4]; first treatment) | symptoms upon re-treatment (SIBO [4]; re-treatment 500 mg twice daily for 10 days) | eradication of bacterial overgrowth (SIBO [4]; 500 mg twice daily for 10 days)
1 | CCCCCCCC/C=C\CCCCCCCC(=O)[O-].[Na+] [oleate, sodium oleate] | 509.8 µg | 338 µg | 211.75 ± 35.44 ng | – | – | – | – | – | – | – | –
2 | neomycin | – | – | – | completely resolved | dramatic improvement | completely eradicated | 6-8 weeks | complete resolution | dramatic improvement and resolution | complete resolution of their symptoms | at least partially eradicated
